According to patent publication US7709454B2, “Methods and compositions for inhibiting tumorigenesis” (New York University, priority 1997, dated 2010):

Assays:
[1] = test system: human melanoma primary cultures and cell lines; assay: BrdU incorporation in melanoma primary cultures and cell lines; assay type: cell-based
Procedure: (§1) Human foreskin melanocytes (Promocell) were grown in serum-free M2 medium (Promocell). WM-115, SK-MEL-2, SK-MEL-5, MeWo and COS7 cell lines (ATCC) were grown as specified. Tumors were chopped, incubated in E-MEM (Sigma) containing collagenase A (300 U/ml, Worthington) and hyaluronidase (100 U/ml, Sigma), mechanically dissociated and plated in E-MEM with 10% FBS, 1 mM sodium pyruvate (GIBCO) and 1 ng/ml EGF (GIBCO). […] All melanoma samples and BCC were obtained following approved protocols.
(§2) Commercial N-SHH (R&D Systems) was used at 100 nM. 5E1 anti-SHH blocking antibody (Hybridoma Bank, University of Iowa) was used at 10 μg/ml. Forskolin (FK) and 1,9-dideoxyforskolin (ddFK; Sigma) were used at 50 μM. […] MEK-1 (U0126; Promega), EGFR (AG1478; Biosource) and AKT (SH6; Alexis corporation) inhibitors were used at 1, 10, and 40 μM, respectively, dissolved in DMSO. Drug treatments were for 48 h in 2.5% serum. BrdU (Sigma) was pulsed at 4 μg/ml for 2 h before fixation followed by immunodetection with anti-BrdU antibodies (BD Biosciences). The number of viable cells was assessed by Trypan blue exclusion (Promega).

[2] = test system: GLI1-transfected WM-115, SK-MEL-2 and SK-MEL-5; assay: GLI1-transfection enhanced BrdU incorporation, treatment with inhibitors; assay type: cell-based, human; settings: 48 h treatment
Procedure: as §2

[3] = test system: EJ-1 human bladder carcinoma; settings: in vivo; cited from earlier work
[4] = test system: HRAS^V12G or NRAS^Q61K transfected WM-115 and SK-Mel2 cells; assay: oncogenic RAS-transfection enhanced BrdU incorporation (Example 2); assay type: cell-based, human
Procedure: Forskolin (FK) and 1,9-dideoxyforskolin (ddFK; Sigma) were used at 50 μM. MEK-1 (U0126; Promega), and AKT (SH6; Alexis corporation) inhibitors were used at 1 and 40 μM, respectively, dissolved in DMSO. U0126 and SH6 were used for 1 h, 48 h post-transfection. Leptomycin B (LMB; Sigma) was used at 5 nM for 6 h, 48 h post-transfection. BrdU (Sigma) was pulsed at 4 μg/ml for 2 h before fixation followed by immunodetection with anti-BrdU antibodies (BD Biosciences). The number of viable cells was assessed by Trypan blue exclusion (Promega). […] (SEQ ID NO: 57) (target-validated from Ambion). […] SEQ ID NO: 58) (Sanchez, P. et al. Inhibition of prostate cancer proliferation by interference with SONIC HEDGEHOG-GLI1 signaling. Proc. Natl. Acad. Sci. USA. 101, 12561-12566 (2004)). siRNA transfections (0.2 μM) were performed with Oligofectamine (Invitrogen) for 48 h.
Cells were transfected (3 μg/p35 plate) with myc-tagged full-length CMV expression vectors with FUGENE (Roche). Transfections were at equimolar amounts unless otherwise specified with combinations of pCS2-Myc-tagged human GLI1, GLI3, GLI3R (GLI3C′ΔClaI), frog Gli2R (Gli2C′) (Ruiz i Altaba, A. Gli proteins encode context-dependent positive and negative functions: implications for development and disease. Development 126, 3205-3216 (1999), pCMV-HA-tagged GLI1 (ref. 20), HRAS^V12G (from A. Pellicer), NRAS^Q61K (Ackermann, J. et al. Metastasizing melanoma formation caused by expression of activated N-RasQ61K on an INK4a-deficient background. Cancer Res. 65, 4005-4011 (2005)), activated (myristoylated) myc-tagged AKT1 (Upstate), activated MEK1 (p45MAPKK^S222D; from J. Pouyssegur), Myc-tagged SUFUH (Kogerman, P. et al. Mammalian suppressor-of-fused modulates nuclear-cytoplasmic shuttling of Gli-1. Nat Cell Biol. 1, 312-319 (1999)), and pCMV-eGFP or pCMV-lacZ.

[5] = test system: Nude Harlan Sprague-Dawley Mice/lung (A-549, Calu-1) tumors; settings: 70 mg/kg/d; cited from earlier work
Nude mice/HIG3T3 = settings: nude mice transplanted with activated H-Ras-transformed HIG3T3 cells; cited from earlier work
[6] = test system: GLI1 transcriptional activity; assay: GLI luciferase reporter assay (7 GLI binding site reporter) in COS7 cells; assay type: cell-based, monkey
[7] = test system: ras-transformed rat kidney cell; settings: cited from earlier work
human cancer cells = settings: cited from earlier work
Mewo cells = assay: BrdU incorporation, AKT inhibitor plus cyclopamine; assay type: cell-based, human; settings: 5 μM cyclopamine plus 20 μM SH6, 48 hours
Procedure: (§3) Cell proliferation was assessed after incubation with BrdU as described.

p-ERK, p-AKT = assay: levels of p-ERK or p-AKT in melanoma cells; assay type: cell-based, human; settings: cyclopamine treatment
WM-115, Me-3 and MeWo = assay: long-term cyclopamine treatment and recovery of cultures; assay type: cell-based, human; settings: ten days, drug-containing media anew every 2 days
[8] = test system: WM-115 subcutaneous tumors; assay: subcutaneous WM-115 melanoma xenografts in nude mice; assay type: in vivo, mouse; settings: n=2 treated vs n=2 carrier
Procedure: (§5) 5×10^5 MeWo/LacZ, WM-115 or 10^6 primary Me-3 melanoma cells were inoculated subcutaneously (s.c.) at two sides per adult male (NMRI-nu) nude mouse and the tumors were measured daily. […] For metastasis studies, 1×10^6 Mewo/LacZ cells were injected into the tail vein (i.v.) of adult male nude mice. […] At the end of the treatment the lungs were dissected and stained with XGal.

[9] = test system: GLI1, PTCH1, BMI1, FOXM1, MITFM expression; assay: qPCR gene expression in melanoma cultures; assay type: cell-based, human
Procedure: (§4) Real-time quantitative PCR amplifications with different primers (Suppl. Materials) were carried out at 60° C. on an Opticon machine (MJ Research) using iQ™ SYBR Green supermix (Biorad) and values calculated using the standard curve method.
as §2

[10] = test system: WM115, SK-MEL-2, SK-MEL-5 and MeWo cell lines; assay: BrdU incorporation in melanoma cell lines; assay type: cell-based, human
Procedure: as §1, §2

[11] = test system: Proliferating melanocytes from human foreskin; assay: BrdU incorporation in proliferating melanocytes; assay type: cell-based
Procedure: as §1, §2

[12] = test system: NRAS^Q61K mouse melanoma primary cultures; assay: BrdU incorporation in primary cultures of Tyr-NRAS^Q61K; Ink4a−/− mouse melanomas; assay type: cell-based; settings: 10 μM
Procedure: WM-115, SK-MEL-2 and COS7 cell lines (ATCC) were grown according to the specifications of the provider. The primary Me-3 melanoma (Stecca, B. et al. Melanocyte proliferation and melanoma growth, recurrence and metastasis require sustained SONIC HEDGEHOG-GLI signaling. Submitted. (2006)) was grown in E-MEM with 10% FBS (Hyclone), 1 mM sodium pyruvate (GIBCO) and 1 ng/ml EGF (GIBCO). Proliferating human melanocytes from foreskin (Promocell) were grown in M2 media (Promocell). Melanomas from ±6 month-old Tyr→NRAS^Q61K; Ink4a^−/− mice on a light coat color Dct^−/− background^13 were collected from the skin and lymph nodes. Tumors were dissociated and grown in E-MEM with 10% FBS, 1 mM sodium pyruvate (GIBCO) and 1 ng/ml EGF (GIBCO). Mouse embryonic fibroblasts (MEFs) were prepared from E14.5 Swiss Webster mouse embryos and grown in DMEM with 10% FBS.
Forskolin (FK) and 1,9-dideoxyforskolin (ddFK; Sigma) were used at 50 μM. MEK-1 (U0126; Promega), and AKT (SH6; Alexis corporation) inhibitors were used at 1 and 40 μM, respectively, dissolved in DMSO. U0126 and SH6 were used for 1 h, 48 h post-transfection. Leptomycin B (LMB; Sigma) was used at 5 nM for 6 h, 48 h post-transfection. BrdU (Sigma) was pulsed at 4 μg/ml for 2 h before fixation followed by immunodetection with anti-BrdU antibodies (BD Biosciences). The number of viable cells was assessed by Trypan blue exclusion (Promega). […]

MeWo/LacZ melanomas = assay: subcutaneous MeWo/LacZ melanoma xenografts in nude mice; assay type: in vivo, mouse
Procedure: as §5

WM115 cells = assay: BrdU incorporation, MEK inhibitor plus cyclopamine; assay type: cell-based, human; settings: 5 μM cyclopamine plus 1 μM U0126, 48 hours
Procedure: as §3

[13] = test system: GLI1, HIP and MITFM expression; assay: qPCR gene expression in proliferating melanocytes after SHH; assay type: cell-based, human; settings: SHH treatment, 8 h, qPCR normalized to GAPDH
Procedure: as §4

[14] = test system: primary cultures Me-1 to Me-5 (melanoma metastases); assay: BrdU incorporation in melanoma primary cultures; assay type: cell-based, human; settings: exogenous recombinant SHH ligand, 48 h; fraction of five primary cultures
Procedure: as §1, §2

Compound: COc1cc2ncnc(Nc3cccc(Cl)c3)c2cc1OC [AG1428]
- BrdU incorporation ([1]; 48 h, all four melanoma cell lines tested and Me-3): decreased BrdU incorporation
- effect on GLI1-enhanced proliferation [2]: reversed

Compound: COC(=O)[C@H](CCSC)NC(=O)[C@H](/C=C\[C@@H](/C=C/[C@@H](N)CS)C(C)C)Cc1ccccc1 [B1086]
- tumor growth [3]: inhibit tumor growth

Compound: C=C[C@@]1(C)CC(=O)[C@]2(O)[C@@]3(C)[C@@H](O)CCC(C)(C)[C@@H]3[C@H](O)[C@H](OC(C)=O)[C@@]2(C)O1 [Forskolin]
- inhibition of oncogenic RAS-induced proliferation ([4]; SK-Mel2): 100%
- inhibition of oncogenic RAS-induced proliferation ([4]; WM-115): ~80%

Compound: CC(C)C[C@H](NC(=O)c1ccc(NC[C@@H](N)CS)cc1-c1cccc2ccccc12)C(=O)O [GGTI-297]
- GROWTH INHIBITION [5]: 56%-70%

Compound: C[C@H]([C@H](C/C=C/c1nc2ccccc2o1)c1ccc2c(c1)OCO2)N(Cc1ccc2ccccc2c1)C(=O)[C@H]1OC(C(=O)O)(C(=O)O)O[C@H]1C(=O)O [J-104871]
- tumor growth (Nude mice/HIG3T3): suppressed tumor growth

Compound: CCC(=C/[C@H](C)C/C=C/C(C)=C/[C@@H](C)C(=O)[C@@H](C)[C@H](O)[C@@H](C)C/C(C)=C/C(=O)O)/C=C/[C@@H]1OC(=O)C=C[C@@H]1C [LMB]
- increase of GLI1-induced luciferase activity ([6]; GLI1 alone, 4 h treatment with LMB): ~3 fold
- further increase in GLI activity ([6]; cells coexpressing GLI1 and NRAS^Q61K, LMB treatment): ~3 fold

Compound: Cc1ccc(S(=O)(=O)N[C@@H](Cc2ccccc2)C(=O)CCl)cc1 [TPCK]
- cell growth [7]: potently inhibit
- anchorage-independent clonogenic growth (human cancer cells): almost completely block

Compound: CC1=C2C[C@H]3[C@@H](CC=C4C[C@@H](O)CC[C@@]43C)[C@@H]2CC[C@]12O[C@@H]1C[C@H](C)CN[C@H]1[C@H]2C [cyclopamine]
- effect on BrdU incorporation of suboptimal cyclopamine combined with SH6 (Mewo cells): significantly effective
- response of BrdU incorporation to cyclopamine ([1]; 24-48 h, dose-dependent, compared with tomatidine): all responded
- inhibition of oncogenic RAS-enhanced BrdU incorporation ([4]; WM-115 and SK-Mel2): 65-75%
- levels of p-ERK or p-AKT (p-ERK, p-AKT): did not alter
- BrdU incorporation after long-term treatment (WM-115, Me-3 and MeWo): inhibit all BrdU incorporation
- tumor response to cyclopamine treatment [8]: lead to their disappearance
- GLI1 expression ([9]; 24-48 h cyclopamine treatment): decreased GLI1 expression
- PTCH1 expression ([9]; cyclopamine 8 h, 3 primary cultures tested): inhibited PTCH1 expression
- Expression of BMI1, FOXM1 and MITFM ([9]; cyclopamine 8 h, primary cultures): repressed
- sensitivity of tumor-derived MeWo/lacZ cells to cyclopamine in vitro versus parental cells ([10]; cells from systemically treated tumors): same sensitivity
- induction of the senescence marker SA-β-gal ([11]; cyclopamine treatment): did not induce
- number of doubly BrdU+/GFP+ cells ([12]; two primary cultures (1-PM2, 1-LNM5), GFP plus control plasmid): decreased the number of doubly BrdU+/GFP+ cells
- recurrence after sustained treatment (MeWo/LacZ melanomas; 20 d treatment after tumor disappearance, 42 additional days): no recurrences
- tumor response to injection into the tumor (MeWo/LacZ melanomas; cyclodextrin-complexed cyclopamine injected into the tumor, tumors ±10 mm^3 or ±65 mm^3, vs cyclodextrin alone): rapid regression and disappearance of the tumors
- cured tumors containing small pockets of β-gal+ tumor cells or groups of single cells (MeWo/LacZ melanomas; five cured tumors taken 1-2 days after macroscopic disappearance): ⅘
- time to tumor reappearance (MeWo/LacZ melanomas; from the end of 3 d and 10 d additional treatment after tumor disappearance): 2 to 7 days
- decrease in tumor volume (MeWo/LacZ melanomas; systemic treatment of large subcutaneous tumors (±65 mm^3), 16 days, vs carrier-only): 33%
- effect on BrdU incorporation of suboptimal cyclopamine combined with U0126 (WM115 cells): significantly effective

Compound: C[C@H]1CC[C@]2(NC1)O[C@H]1C[C@H]3[C@@H]4CC[C@H]5C[C@@H](O)CC[C@]5(C)[C@H]4CC[C@]3(C)[C@H]1[C@@H]2C [tomatidine]
- proliferation of all 12 primary cultures ([12]; 48 h): no effect

Compound: SHH: Commercial N-SHH (R&D Systems), recombinant SHH ligand
- induction of GLI1 expression [13]: 2-3 fold
- induction of HIP expression [13]: 2-3 fold
- induction of MITFM expression [13]: 6 fold
- cell lines with increased BrdU incorporation above a basal level (10%) ([10]; exogenous recombinant SHH ligand, 48 h, fraction of four cell lines): ¾
- increase in proliferation ([11]; recombinant SHH ligand, 48 h, over PBS): ⅓
- primary cultures with increased BrdU incorporation above a basal level (10%) [14]: ⅘
